Values belong to the molecule of their own block, whether it stands above or below them.
Assay: solvent given as SMILES

SMILES: CCc1c(C)[nH]c(C2=[N+]3C(=Cc4c(C)cc(C)n4[B-]3(F)F)c3ccccc32)c1C
absorption maximum (in C1CCOC1): 615 nm | absorption maximum (in CC#N): 607 nm | absorption maximum (in CCCCCC): 616 nm | absorption maximum (in CO): 610 nm | absorption maximum (in Cc1ccccc1): 623 nm | absorption maximum (in ClCCl): 616 nm

SMILES: CC1(C)c2ccccc2N(c2ccc(-c3nnc(-c4ccc(N5c6ccccc6C(C)(C)c6ccccc65)cc4)o3)cc2)c2ccccc21
absorption maximum (in Cc1ccccc1): 360 nm

SMILES: CCOC(=O)CN1C(=O)C2=C(c3ccc(C#N)cc3)N(CC(=O)OCC)C(=O)C2=C1c1ccc(C#N)cc1
absorption maximum (in CC#N): 473 nm | absorption maximum (in CS(C)=O): 480 nm | absorption maximum (in Cc1ccccc1): 482 nm

SMILES: O=Cc1c(O)c(-c2nc3ccccc3s2)cc2ccccc12
absorption maximum (in C1CCOC1): 352 nm | absorption maximum (in CC#N): 349 nm | absorption maximum (in CC(C)=O): 352 nm | absorption maximum (in CCO): 349 nm | absorption maximum (in CCOC(C)=O): 352 nm | absorption maximum (in CN(C)C=O): 346 nm | absorption maximum (in CO): 349 nm | absorption maximum (in Cc1ccccc1): 358 nm | absorption maximum (in ClC(Cl)Cl): 352 nm | absorption maximum (in ClCCl): 352 nm

SMILES: CC1(C)CC(=O)c2cc(F)cc(F)c2N1
absorption maximum (in CC#N): 377 nm | absorption maximum (in CCO): 386 nm

SMILES: O=C(c1ccncc1)c1ccc(-n2c3ccc(-n4c5ccccc5c5ccccc54)cc3c3cc(-n4c5ccccc5c5ccccc54)ccc32)cc1
absorption maximum (in C1CCOC1): 341.83 nm | absorption maximum (in Cc1ccccc1): 360.08 nm | absorption maximum (in ClCCl): 341.83 nm

SMILES: CC(C)(C)c1ccc2ccc3cc(-c4ccc5c(-c6ccc7c(ccc8ccc(C(C)(C)C)cc87)c6)cc6c7cc(-c8ccc9c(ccc%10ccc(C(C)(C)C)cc%109)c8)ccc7c(-c7ccc8c(ccc9ccc(C(C)(C)C)cc98)c7)cc6c5c4)ccc3c2c1
absorption maximum (in ClCCl): 303 nm

SMILES: CC(C)(C)c1cc2ccc3cc(C(C)(C)C)cc4c3c2c(c1)c(=O)n1c4nc2c3cc(C(C)(C)C)cc4ccc5cc(C(C)(C)C)cc(c5c43)c21
absorption maximum (in C1CCOC1): 395 nm | absorption maximum (in CC#N): 394 nm | absorption maximum (in CC(C)=O): 395 nm | absorption maximum (in CCCCCC): 399 nm | absorption maximum (in CCO): 395 nm | absorption maximum (in CCOC(C)=O): 393 nm | absorption maximum (in CO): 382 nm | absorption maximum (in CS(C)=O): 394 nm | absorption maximum (in Cc1ccc(C)cc1): 396 nm | absorption maximum (in ClC(Cl)(Cl)Cl): 401 nm | absorption maximum (in ClC(Cl)Cl): 401 nm | absorption maximum (in c1ccccc1): 395 nm

SMILES: COc1ccc(C#Cc2c(C#Cc3ccc(OC)cc3)c(C#Cc3ccc(OC)cc3)c(C#Cc3ccc(OC)cc3)c(C#Cc3ccc(OC)cc3)c2C#Cc2ccc(OC)cc2)cc1
absorption maximum (in ClCCl): 386 nm

SMILES: CC(C)(C)C1CCC(=CS/C=C/c2ccc(/C=C/SC=C3CCC(C(C)(C)C)CC3)cc2)CC1 (configuration not stated)
absorption maximum (in ClCCl): 351 nm

SMILES: Cc1cc(O)c(C(=O)/C=C/c2cccc(O)c2)c(=O)o1
absorption maximum (in CC#N): 367 nm | absorption maximum (in ClCCl): 374 nm

SMILES: CCCCN(CCCC)c1ccc(C#Cc2cc(C#Cc3ccc(N(CCCC)CCCC)cc3)c(C#Cc3c(F)c(F)c(F)c(F)c3F)cc2C#Cc2c(F)c(F)c(F)c(F)c2F)cc1
absorption maximum (in ClCCl): 438 nm

SMILES: Cc1nc(-c2ccc(-n3c4ccccc4c4ccccc43)cc2)cc(-c2ccc(-n3c4ccccc4c4ccccc43)cc2)n1
absorption maximum (in C1CCOC1): 343 nm | absorption maximum (in CN(C)C=O): 343 nm | absorption maximum (in Cc1ccccc1): 355 nm | absorption maximum (in ClC(Cl)Cl): 343 nm

SMILES: CCOC(=O)c1sc(-c2ccc(-c3cc(C4CC4)c(C(=O)OCC)s3)s2)cc1C1CC1
absorption maximum (in ClCCl): 395 nm

SMILES: CCCCCCCCCCOC(=O)c1ccc2c3ccc(C(=O)OCCCCCCCCCC)c4c(C(=O)OCCCCCCCCCC)cc5[nH]c6cc(C(=O)OCCCCCCCCCC)c1c2c6c5c43
absorption maximum (in C1CCOC1): 410 nm

SMILES: C=CC1CN2CCC1CC2[C@@H](OCc1ccccc1)c1ccnc2ccc(O)cc12 (some centres not stated)
absorption maximum (in C1CCOC1): 338 nm | absorption maximum (in CC#N): 335 nm | absorption maximum (in CCCC#N): 337 nm | absorption maximum (in Cc1ccccc1): 335 nm | absorption maximum (in ClCCl): 334 nm

SMILES: CN(C)c1ccc(C2=Nc3scc[n+]3[B-](F)(F)O2)cc1
absorption maximum (in C1CCOC1): 402 nm | absorption maximum (in CC#N): 402 nm | absorption maximum (in Cc1ccccc1): 405 nm | absorption maximum (in ClCCl): 407 nm

SMILES: CC1=CC(C)=[N+]2C1=C(c1ccc(N3CCOCC3)cc1)c1c(C)cc(C)n1[B-]2(F)F
absorption maximum (in C1CCOC1): 500 nm | absorption maximum (in CC#N): 496 nm | absorption maximum (in CC(=O)C(C)(C)C): 495 nm | absorption maximum (in CC(C)=O): 490 nm | absorption maximum (in CCCCCC): 498 nm | absorption maximum (in CCOC(C)=O): 498 nm | absorption maximum (in CO): 494 nm

SMILES: CN(C)c1ccc(-c2c(/C=C3/C=Cc4ccccc4N3C)c(=O)c2=O)cc1
absorption maximum (in C1CCCCC1): 358 nm | absorption maximum (in Cc1ccccc1): 362 nm | absorption maximum (in ClCCl): 509 nm

SMILES: CCCCCCCCCc1csc2cc(-c3cc(-c4cc5scc(CCCCCCCCC)c5s4)c4ccc5c(-c6cc7scc(CCCCCCCCC)c7s6)cc(-c6cc7scc(CCCCCCCCC)c7s6)c6ccc3c4c65)sc12
absorption maximum (in ClC(Cl)Cl): 429 nm

SMILES: COc1cccc2cc(C#N)c(=N)oc12
absorption maximum (in ClCCl): 364 nm

SMILES: c1cc(N2CCCC2)ccn1
absorption maximum (in CC1CCCCC1): 293 nm | absorption maximum (in CC#N): 285 nm | absorption maximum (in CCCCCCC): 293 nm | absorption maximum (in CCO): 286 nm | absorption maximum (in CN(C)C=O): 284 nm | absorption maximum (in ClC(Cl)Cl): 285 nm | absorption maximum (in O): 280 nm

Results, then the molecule that gave them:

absorption maximum (in ClCCl): 366 nm
SMILES: C(S/C=C/c1ccc(/C=C/SC=C(c2ccccc2)c2ccccc2)cc1)=C(c1ccccc1)c1ccccc1

absorption maximum (in CC#N): 406 nm | absorption maximum (in ClCCl): 416 nm
SMILES: COc1ccc(-c2cc3c(s2)c(C(=O)c2ccccc2)cc(=O)n3Cc2ccccc2)cc1

absorption maximum (in CCOC(C)=O): 435 nm | absorption maximum (in CO): 439 nm
SMILES: CN(C)c1ccc(-c2cc3c(ccc4c([N+](=O)[O-])cccc43)c(=O)o2)cc1

absorption maximum (in C1CCOC1): 275 nm | absorption maximum (in C1COCCO1): 274 nm | absorption maximum (in CC#N): 275 nm | absorption maximum (in CCCCCCC): 274 nm | absorption maximum (in CCO): 274 nm | absorption maximum (in CO): 275 nm | absorption maximum (in O): 264 nm
SMILES: CC1(C)CC(=O)C2=C(C1)Oc1ccc3ccccc3c1C2c1ccccn1 (configuration not stated)

absorption maximum (in C1COCCO1): 339 nm | absorption maximum (in CC#N): 338 nm | absorption maximum (in CO): 338 nm | absorption maximum (in ClCCl): 336 nm
SMILES: CN(C)c1nc(N)c2nc(C#N)n(Cc3ccccc3)c2n1

absorption maximum (in C1CCOC1): 516 nm | absorption maximum (in CN1CCCC1=O): 529 nm | absorption maximum (in CN(C)C=O): 530 nm
SMILES: O=C1OC(=O)c2cc(Oc3ccccc3)c3c4ccc5c6c(cc(Oc7ccccc7)c(c7ccc1c2c73)c64)C(=O)OC5=O

absorption maximum (in C1COCCO1): 430 nm | absorption maximum (in CC#N): 433 nm | absorption maximum (in ClCCl): 436 nm
SMILES: Cc1ccc2nc(/C=C/c3ccc(N(C)C)cc3)c(-c3ccccc3)nc2c1

absorption maximum (in C1CCCCC1): 295 nm
SMILES: c1cc(-c2ccc3c(c2)CCCO3)ccc1-c1ccc2c(c1)CCCO2

absorption maximum (in C1CCCCC1): 420 nm | absorption maximum (in CC#N): 432 nm | absorption maximum (in CCO): 432 nm
SMILES: COc1cccc2c1-c1ccccc1C2=O

absorption maximum (in ClCCl): 309 nm
SMILES: Brc1ccc(N2c3c(sc4ccccc34)Sc3sc4ccccc4c32)cc1

absorption maximum (in CCOC(C)=O): 296 nm
SMILES: CCn1c(-c2ccc(N(c3ccccc3)c3cccc4ccccc34)cc2)c(-c2ccc3ccccc3c2)c(-c2ccc3ccccc3c2)c1-c1ccc(N(c2ccccc2)c2cccc3ccccc23)cc1

absorption maximum (in CC#N): 540 nm | absorption maximum (in CCCCCC): 562 nm | absorption maximum (in CO): 555 nm
SMILES: COc1ccc2c(c1)N(c1ccc(C)cc1)c1cc3c(cc1=N2)Oc1c(cc(C(C)(C)C)cc1C(C)(C)C)N=3

absorption maximum (in CCO): 556 nm
SMILES: CN(C)c1ccc2c(-c3ccc(Br)cc3)c3ccc(=[N+](C)C)cc-3oc2c1

absorption maximum (in ClCCl): 639 nm
SMILES: COc1c2ccccc2c(OC)c2c(C#C[Si](C(C)C)(C(C)C)C(C)C)c3cc4sccc4cc3c(C#C[Si](C(C)C)(C(C)C)C(C)C)c12

absorption maximum (in ClC(Cl)Cl): 437 nm
SMILES: Cc1c2c(c(C)c3ccccc13)C1=C2C=CC2Nc3ccccc3NC12 (configuration not stated)

absorption maximum (in C1CCCCC1): 403 nm | absorption maximum (in CC#N): 405 nm | absorption maximum (in CO): 404 nm | absorption maximum (in ClCCl): 406 nm
SMILES: COc1c2ccccc2c(OC)c2c1c1c(F)cccc1n2C

absorption maximum (in ClCCl): 421 nm
SMILES: C(#Cc1nc(C#Cc2ccccc2)c(C#Cc2ccccc2)c(C#Cc2ccccc2)c1C#Cc1ccccc1)c1ccccc1

absorption maximum (in CC#N): 478 nm
SMILES: COC(=O)/C=C/c1sc(-c2ccc(N(C)C)s2)c(-c2cn(C)c3ccccc23)c1O

absorption maximum (in ClCCl): 329 nm
SMILES: c1ccc2c(c1)-c1ccccc1[Si]21c2ccccc2-c2cc3c(cc21)-c1ccccc1[Si]31c2ccccc2-c2ccccc21

absorption maximum (in ClCCl): 520 nm
SMILES: Clc1nnc(O/N=C/c2ccc(N(c3ccc(Br)cc3)c3ccc(Br)cc3)cc2)nn1

absorption maximum (in CCCCCC): 551 nm
SMILES: CC(C)[Si](C#Cc1c2nc3c(nc2c(C#C[Si](C(C)C)(C(C)C)C(C)C)c2nc4ccccc4nc12)C1c2ccccc2C3c2ccccc21)(C(C)C)C(C)C

absorption maximum (in ClCCl): 368 nm
SMILES: C[Si]1(C)O[Si](C)(C)c2cc3nc4ccccc4c(-c4ccccc4)c3cc2[Si](C)(C)O1

absorption maximum (in CC#N): 322 nm | absorption maximum (in CO): 324 nm
SMILES: FC(F)(F)c1ccc2c(c1)Nc1ccccc1S2

absorption maximum (in CC1CCCO1): 476 nm
SMILES: COc1c(-c2c(OC)c3cccc4ccc5oc(=O)cc2c5c43)c2cc(=O)oc3ccc4cccc1c4c32

absorption maximum (in C1COCCO1): 379 nm | absorption maximum (in CC#N): 379 nm | absorption maximum (in CCO): 381 nm | absorption maximum (in CO): 382 nm | absorption maximum (in ClCCCl): 380 nm | absorption maximum (in O): 386 nm
SMILES: Cc1cccc2nc3c(=O)[nH]c(=O)[nH]c3nc12

absorption maximum (in ClCCl): 431 nm
SMILES: F[B-]1(F)OC(C#Cc2ccccc2)=C2CCc3ccccc3C2=[O+]1

absorption maximum (in ClC(Cl)Cl): 355 nm
SMILES: Cc1ccccc1Oc1ccc2c3c(cccc13)C(=O)N(CCO)C2=O

absorption maximum (in ClCCl): 357 nm
SMILES: CCn1c2ccccc2c2c(N(c3ccccc3)c3ccccc3)cccc21

absorption maximum (in C1CCOC1): 290 nm
SMILES: C1=C(c2ccccc2)C(c2ccccc2)=CC1c1ccccc1

absorption maximum (in CCO): 369 nm
SMILES: CN(C)c1cc2c(cc1F)c(=O)c1cc(F)c(N)cc1n2C

absorption maximum (in CCO): 394 nm | absorption maximum (in ClCCl): 397 nm
SMILES: c1ccc2c(-c3cncnc3)c3ccccc3c(-c3cncnc3)c2c1
